Assay results: patent US20230167124A1, “Methods for the Production of Nickel (II) Etioporphyrin-I” (Adgero Biopharmaceuticals Holdings, Inc., priority 2020, published 2023)

Test: Solubility of etioporphyrin-I in chloroform
Assay type: physicochemical
Conditions: solvent chloroform
Description: In addition to the problems associated with the isolation of the dipyrromethenes, another difficulty in the syntheses of etioporphyrin I is the work up and purification procedures for isolating etioporphyrin-I. The coupling reaction of the dipyrromethenes (see Scheme 3, (5) and (6)) is carried out in refluxing formic acid. Generally, this gives a tarry, black reaction mixture that yield about 20-35% of etioporphyrin-I after extensive chromatography. On small scales (1-40 g of dipyrromethenes), dissolution of the tarry reaction mixture in chloroform, followed by neutralization and chromatography on large amounts of silica affords the desired porphyrin. […] During this process it is not uncommon for etioporphyrin-I to precipitate from solution onto the silica gel, making column chromatography (even on small scale (10 g)) difficult. Clearly, such a process is not feasible economically on large scale.

solubility in chloroform: < 10000 µg/mL
Substance: etioporphyrin-I
